Source: patent US12209143B2, “Versatile peptide and protein macrocyclization and multimerization with diels-alder cycloadditions” (The University of Chicago, priority 2019, dated 2025)
Read-outs that look alike come from different tables or passages of the source. Values belong to the compound of their own block, whether it stands above or below them.

Legend:
[1] = target: T1, trypsin (Sus scrofa, UniProt P00761); assay: In vitro trypsin resistance assay; type: in vitro ADME; settings: 10 μg/mL trypsin, 37° C.
T1 construct: purchased Thermo Pierce
T1 sequence (P00761 9-231): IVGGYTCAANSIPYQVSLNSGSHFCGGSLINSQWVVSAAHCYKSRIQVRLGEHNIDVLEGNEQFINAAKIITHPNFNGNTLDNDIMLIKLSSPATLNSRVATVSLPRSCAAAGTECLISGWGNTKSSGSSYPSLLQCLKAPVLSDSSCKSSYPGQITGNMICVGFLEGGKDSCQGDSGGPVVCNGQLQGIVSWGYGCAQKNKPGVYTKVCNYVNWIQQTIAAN
Method: (§1) DAC protease stability assays. DAC peptide protease degradation kinetics were determined with Thermo Pierce™ MS-Grade Trypsin or Chymotrypsin Protease in PBS or TBS with 5 mM DTT and 2 mM CaCl2. Protease (1 eq) was added to buffer for a final assay concentration of 10 μg/mL trypsin or 0.5 μg/mL chymotrypsin. Each respective reaction mixture was then added to either 1 wt and 1a (2000 eq) or 4 wt and 4a (10,000 eq). Samples were then incubated at 37° C., 1,000 rpm. 5 min, 10 min, 30 min, 2 hr, and 4 hr time points were quenched in an equal volume of 2% TFA/H2O on ice. After 5 min, samples were centrifuged for 2 min at 17,000 rcf to precipitate quenched trypsin. Supernatant solutions were then analyzed and intact peptide quantified by LC-MS or Q-TOF.

[2] = target: T2, ERα (Homo sapiens, UniProt P03372); assay: Competitive fluorescence polarization (FP) binding assay of DAC-SRC2 peptides
T2 construct: Wildtype and Y537S 6×His-TEV-ERα (residues 300-550) in pET21a(+) was expressed in E. coli BL21(DE3); 6×His-TEV (N, cleaved yes); made in house; host or cells: E. coli BL21(DE3)
T2 sequence (P03372 300-550): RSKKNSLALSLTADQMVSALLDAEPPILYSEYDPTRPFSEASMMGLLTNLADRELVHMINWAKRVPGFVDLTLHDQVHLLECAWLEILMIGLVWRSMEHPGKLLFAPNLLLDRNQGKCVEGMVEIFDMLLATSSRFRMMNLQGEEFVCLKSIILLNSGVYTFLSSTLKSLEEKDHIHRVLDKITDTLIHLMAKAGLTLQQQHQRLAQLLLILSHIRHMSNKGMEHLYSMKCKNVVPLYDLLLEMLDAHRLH
Method: Competitive fluorescence polarization (FP) assay. […] Plates were incubated at 4° C. for 1 hr, imaged using standard FP assay settings at 30° C., and data analyzed as previously described.

[3] = target: T3, chymotrypsin (Bos taurus, UniProt P00766); assay: In vitro chymotrypsin resistance assay; type: in vitro ADME; settings: 0.5 μg/mL chymotrypsin, 37° C.
T3 construct: purchased Thermo Pierce
Method: as §1

degradation by trypsin [1]: extended half-life
Compound: CC(=O)N[C@H]1CSCC2C=CC(C)C3C(=O)N(CC(=O)NCCCC[C@@H](C(N)=O)NC(=O)[C@H](CC(=O)O)NC(=O)CNC(=O)[C@H](CCCNC(=N)N)NC1=O)C(=O)C23 (some centres unmarked) [1a, CHexRGDKMal]

Ki ([2]; calculated from competitive FP assay, ERα, value (± s.e.m.)): 210 nM | IC50 ([2]; competing a fluorescein-linked SRC2 peptide off of ERα, read-out: IC50 (approximate)): ~500 nM | IC50 ([2]; competitive FP, wildtype ERα, fluorescein-labeled SRC peptide tracer, value (± s.e.m.), read-out: IC50): 480 nM
Compound: CC[C@H](C)[C@H](NC(=O)[C@H](CCCCN)NC(=O)[C@H](Cc1c[nH]cn1)NC(C)=O)C(=O)N[C@@H](CC(C)C)C(=O)N[C@@H](Cc1c[nH]cn1)C(=O)N[C@H]1CCCCNC(=O)CN2C(=O)C3C4C=CC(C[C@@H](C(=O)N[C@@H](CO)C(N)=O)NC(=O)[C@H](CCC(N)=O)NC(=O)[C@H](CC(C)C)NC(=O)[C@H](CC(C)C)NC1=O)(O4)C3C2=O (some centres unmarked) [7a]

degradation by chymotrypsin [3]: degraded more rapidly than 4a
Compound: Ac-CAVPAVYK-NH2 [4 wt]
